According to PMC10537268 (Plants, 2023):
Values after ≈ are worked out from the molar mass of the structure shown. Values joined by “and” are separate entries in the source; they are usually repeats but may differ in a detail not shown here. Identical values can stand only once.

What was measured:
PC3 cells = test: MTT cytotoxicity assay, PC3; format: cell-based; conditions: Homo sapiens, PC-3, 24 h, read-out: IC50 PC3 cytotoxicity
Procedure: (§1) Human breast cancer cell lines MCF7 (ATCC HTB-22), human prostate cancer cell lines PC3 (ATCC CRL-1435), human lung cancer cell lines A549 (ATCC CCL-185), and human embryonic kidney cell lines HEK293 (ATCC CRL-1573) were cultured in Dulbecco’s Modified Eagle’s Medium/High Glucose (DMEM, High Glucose) or Dulbecco’s Modified Eagle’s Medium/F12 (DMEM, F12) at 37 °C in a humidified 5% CO2 atmosphere. The media were supplemented with 10% fetal bovine serum (FBS), 1% (v/v) antibiotic-antimycotics solution (100 U/mL of penicillin, 100 μg/mL of streptomycin, and 0.25 μg/mL of amphotericin B), and 1% (v/v) non-essential amino acids.
(§2) Cells were cultured for 24 h in 96-well plates containing 10^5 cells per well before exposure. The essential oils and geraniol were dissolved in DMSO (<1%) and diluted with respective medium for use in MTT assay (0.1–2000 µg/mL concentration range). After incubation, the […] and washed with D-PBS followed by addition of MTT (30 µL). After a 4 h incubation period, 150 µL of DMSO was added and mixed using a shaker at 25 °C. This was followed by measurement of the absorbances a 540 nm using the microplate reader. All experiments were performed in triplicate.

AChE = molecular target: T1, AChE (Electrophorus electricus, UniProt O42275); test: Anticholinesterase activity, modified Ellman method (AChE); format: biochemical
T1 construct: purchased Sigma Aldrich
Procedure: Cholinesterase inhibition was determined spectrophotometrically through the modified Ellman method. Ethanol was used as negative control. Sodium phosphate buffer, AChE enzyme stock solution, the essential oils, and geraniol were mixed and allowed to incubate for 30 min at room temperature DTNB and acetylthiocholine were added to initiate the enzyme reaction.

COX-1 = molecular target: T2, COX-1 (Ovis aries, UniProt P05979); test: COX-1 fluorometric inhibitory screening assay kit; format: biochemical, Ovine
T2 construct: purchased Cayman Chemical Company 700100
T2 sequence (P05979 25-600): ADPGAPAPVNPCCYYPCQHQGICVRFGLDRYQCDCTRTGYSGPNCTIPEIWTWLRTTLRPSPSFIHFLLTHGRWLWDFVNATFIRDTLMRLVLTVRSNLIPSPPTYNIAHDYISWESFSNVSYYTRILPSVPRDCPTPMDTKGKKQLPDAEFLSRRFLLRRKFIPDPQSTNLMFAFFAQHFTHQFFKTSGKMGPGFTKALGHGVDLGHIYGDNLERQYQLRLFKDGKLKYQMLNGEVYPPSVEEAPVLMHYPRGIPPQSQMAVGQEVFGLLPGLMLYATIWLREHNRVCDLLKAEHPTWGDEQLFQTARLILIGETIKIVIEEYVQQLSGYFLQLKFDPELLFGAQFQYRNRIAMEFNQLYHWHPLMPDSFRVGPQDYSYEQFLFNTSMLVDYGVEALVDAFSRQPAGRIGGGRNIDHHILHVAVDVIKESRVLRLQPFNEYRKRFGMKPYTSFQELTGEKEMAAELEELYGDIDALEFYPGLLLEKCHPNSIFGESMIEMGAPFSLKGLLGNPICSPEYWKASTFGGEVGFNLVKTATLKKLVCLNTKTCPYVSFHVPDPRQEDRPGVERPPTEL
Procedure: (§3) The essential oils and geraniol were tested using a commercial COX-1 (Ovine), COX-2 (Human recombinant), and fluorometric inhibitory screening assay kit following the instructions recommended by the manufacturer (Cayman test kit 700100, Cayman Chemical Company, Ann Arbor, MI, USA). Briefly, 150 µL of assay buffer (0.1 M Tris-HCl pH 8.0), 10 µL of Heme, 10 µL of enzyme (COX-1 or COX-2), and 10 µL of the test sample were added to the wells. After 5 min at 25 °C, 10 µL of ADHP (10-acetyl-3 7-dihydroxy phenoxazine) and 10 µL of arachidonic acid were added to initiate the reaction. The plate was incubated at room temperature for 2 min followed by fluorescence measured at 530 nm (excitation) and 585 nm (emission). Stock solution of the essential oils was prepared with DMSO 1%. The triplicate experimental data are expressed as mean ± standard deviation (SD). For the percentage inhibition (%I) calculations, the formula below was used:t% I = [(Initial Activity − Sample Activity)/Initial Activity] × 100

[1] = MTT cytotoxicity assay, HEK293; format: cell-based; conditions: human, HEK293 cells, healthy cell line, ND: Not detected
Procedure: as §1, §2

A549 cells = test: MTT cytotoxicity assay, A549; format: cell-based; conditions: Homo sapiens, A549, 24 h, read-out: IC50 A549 cytotoxicity
Procedure: as §1, §2

MCF7 cells = test: MTT cytotoxicity assay, MCF7; format: cell-based; conditions: Homo sapiens, MCF7, 24 h, read-out: IC50 MCF7 cytotoxicity
Procedure: as §1, §2

ACE2 = molecular target: T3, ACE2 (Homo sapiens, UniProt Q9BYF1); test: ACE2 enzyme inhibition assay (BioVision kit); format: biochemical; conditions: read-out: ACE2 inhibition
T3 construct: purchased BioVision K310
Procedure: The ACE2 enzyme inhibition assay was performed using the commercially available kit (BioVision, UK, Catalog number: K310). Stock solutions of the test samples were prepared in DMSO (1%, v/v). Essential oils (20 μg/mL) and geraniol (5 μg/mL) were dispensed into a 96-well plate followed by addition of ACE2 enzyme solution (blank excluded). The reaction was started by adding 40 µL of substrate solution to each well. The reaction mixture was measured at Ex/Em = 320/420 nm wavelength using the SpectraMax i3, fluorescent microplate reader (Molecular Devices, CA, USA). The results are reported as % inhibition values, which were obtained for all samples from triplicate experiments.

COX-2 = molecular target: T4, COX-2 (Homo sapiens, UniProt P35354); test: biochemical
T4 sequence (P35354 18-604): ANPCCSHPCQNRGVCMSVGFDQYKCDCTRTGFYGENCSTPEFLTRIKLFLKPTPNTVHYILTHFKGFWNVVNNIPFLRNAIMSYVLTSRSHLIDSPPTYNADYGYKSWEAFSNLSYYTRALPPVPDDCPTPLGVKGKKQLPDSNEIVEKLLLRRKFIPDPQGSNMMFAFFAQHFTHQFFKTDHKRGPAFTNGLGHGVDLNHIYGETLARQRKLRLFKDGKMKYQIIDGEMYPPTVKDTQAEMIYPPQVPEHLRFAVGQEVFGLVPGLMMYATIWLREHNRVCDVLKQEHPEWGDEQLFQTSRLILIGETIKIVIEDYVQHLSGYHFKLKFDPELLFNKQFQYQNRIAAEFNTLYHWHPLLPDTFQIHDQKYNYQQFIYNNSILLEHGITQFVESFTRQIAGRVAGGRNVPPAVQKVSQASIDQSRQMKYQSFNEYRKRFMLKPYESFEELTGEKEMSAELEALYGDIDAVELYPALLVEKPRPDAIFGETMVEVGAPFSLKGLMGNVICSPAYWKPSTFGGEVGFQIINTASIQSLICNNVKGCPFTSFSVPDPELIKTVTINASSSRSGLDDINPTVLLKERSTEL
Procedure: as §3

[2] = human recombinant COX-2, fluorometric kit

T1 sequence (O42275 24-633): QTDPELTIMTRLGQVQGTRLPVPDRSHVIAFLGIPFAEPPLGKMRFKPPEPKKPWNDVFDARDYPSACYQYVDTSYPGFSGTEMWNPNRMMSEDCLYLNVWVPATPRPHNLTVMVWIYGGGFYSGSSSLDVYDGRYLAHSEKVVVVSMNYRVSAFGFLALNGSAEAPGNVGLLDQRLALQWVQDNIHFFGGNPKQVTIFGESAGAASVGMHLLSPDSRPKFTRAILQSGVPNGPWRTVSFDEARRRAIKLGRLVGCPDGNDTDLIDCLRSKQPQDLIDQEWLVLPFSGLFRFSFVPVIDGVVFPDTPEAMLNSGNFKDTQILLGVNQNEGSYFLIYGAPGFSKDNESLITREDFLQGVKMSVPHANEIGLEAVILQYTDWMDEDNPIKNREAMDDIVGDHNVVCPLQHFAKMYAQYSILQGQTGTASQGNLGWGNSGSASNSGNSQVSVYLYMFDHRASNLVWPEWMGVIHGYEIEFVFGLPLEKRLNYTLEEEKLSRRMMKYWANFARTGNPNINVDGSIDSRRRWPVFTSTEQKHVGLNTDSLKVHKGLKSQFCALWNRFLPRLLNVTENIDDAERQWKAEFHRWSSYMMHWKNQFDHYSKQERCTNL
T3 sequence (Q9BYF1 18-805): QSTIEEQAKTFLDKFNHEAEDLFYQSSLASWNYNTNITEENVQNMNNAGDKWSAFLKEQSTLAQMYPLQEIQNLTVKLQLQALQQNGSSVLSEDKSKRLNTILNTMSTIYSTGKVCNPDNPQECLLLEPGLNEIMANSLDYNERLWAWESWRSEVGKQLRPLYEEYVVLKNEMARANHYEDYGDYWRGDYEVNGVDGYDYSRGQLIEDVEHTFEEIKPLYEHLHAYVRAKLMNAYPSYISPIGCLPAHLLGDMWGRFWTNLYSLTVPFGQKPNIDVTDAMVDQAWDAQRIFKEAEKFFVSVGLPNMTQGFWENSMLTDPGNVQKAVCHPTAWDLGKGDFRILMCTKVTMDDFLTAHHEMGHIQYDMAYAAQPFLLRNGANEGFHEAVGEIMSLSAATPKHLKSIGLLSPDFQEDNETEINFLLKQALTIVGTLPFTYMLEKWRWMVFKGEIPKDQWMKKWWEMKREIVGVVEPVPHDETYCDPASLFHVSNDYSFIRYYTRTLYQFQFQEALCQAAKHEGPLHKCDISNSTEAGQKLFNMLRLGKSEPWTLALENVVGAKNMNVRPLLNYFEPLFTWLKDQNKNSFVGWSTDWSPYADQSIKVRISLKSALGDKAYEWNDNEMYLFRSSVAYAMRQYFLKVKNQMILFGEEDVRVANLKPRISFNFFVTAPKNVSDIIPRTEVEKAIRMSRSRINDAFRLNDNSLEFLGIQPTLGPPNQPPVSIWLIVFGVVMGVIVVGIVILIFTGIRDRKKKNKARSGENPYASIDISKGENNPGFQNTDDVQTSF

Row | Compound | IC50 (PC3 cells) [mg/L] | IC50 (AChE) [µM] | IC50 (COX-1; IC50 COX-1, ovine COX-1, fluorometric kit) | IC50 at 24 h [1] [mg/L] | IC50 (A549 cells) [mg/L] | IC50 (MCF7 cells) [mg/L] | inhibition at 5 µg/mL (ACE2) [%] | SI (selectivity index) (COX-2; COX-2 versus COX-1 IC50) | IC50 (COX-2; [2]) | IC50 COX-1 (COX-1; ovine COX-1, fluorometric kit) [mg/L] | IC50 COX-2 (COX-2; [2]) [mg/L]
1 | CC(C)=CCC/C(C)=C/CO [Geraniol] | 77 ± 2.06 (≈ 499 µM) | 109 | 71.3 µM and 72.4 µM | 81.8 ± 1.98 (≈ 530 µM) | 58.9 ± 1.09 (≈ 382 µM) | 42.8 ± 1.48 (≈ 278 µM) | 86.3 | 0.72 | 52.5 µM and 52.6 µM | – | –
2 | CC(Cc1ccc(O)c(O)c1)C(C)Cc1ccc(O)c(O)c1 (centres unmarked) [Nordihydroguaretic Acid, Nordihydroguaiaretic acid, reference compound] | – | – | – | – | – | – | – | – | – | 7.1 (≈ 23.5 µM) | 9.1
